What all share (assay): Test A post-emergence
What all share (design): key: 0 = no effect, 10 = maximum effect; letter = response symbol
Holding throughout (conditions): 0.4 kg/ha

One test has as its system bush bean. It is filed as in vivo, bush beans.
Another test has as its system morningglory. Format: in vivo, Ipomoea spp. The method in brief:
(§1)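 Seeds and tubers were treated preemergence in a growth medium with compound in a nonphytotoxic solvent, against untreated controls; emerged plants such as two-leaf barnyardgrass and five-leaf cotton were sprayed postemergence, against solvent-sprayed controls. After sixteen days in a greenhouse, response was rated visually from 0 to 10.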

In a further test the test system is cocklebur. Format: in vivo, Xanthium spp. The gist of the method:
as §1

The test system of the next test is cassia. Format: in vivo, Cassia tora. The method in brief: as §1
In the next test the test system is nutsedge. Format: in vivo, Cyperus rotundus. The method in brief:
as §1

The test system of the next test is barnyardgrass. It is filed as in vivo, Echinochloa crusgalli. The gist of the method:
as §1

In another test the test system is wild oats. Format: in vivo, Avena fatua. The method in brief: as §1
The subject of another test is corn. Format: in vivo. The gist of the method:
as §1

For the next test, the system named is cotton. It is filed as in vivo. The method in brief: as §1
For the next test, the system named is sorghum. Format: in vivo. The gist of the method:
as §1

Another test relates to soybean. Format: in vivo. The method in brief:
as §1

The test system of another test is wheat. It is filed as in vivo. The gist of the method: as §1
Another test deals with crabgrass. It is filed as in vivo, Digitaria spp. The method in brief:
as §1

A further test concerns rice. Format: in vivo. The method in brief:
as §1

Response rating data for 17 compounds are collected here from patent publication US4383113A, “Agricultural sulfonamides” (E. I. Du Pont de Nemours and Company, priority 1981, dated 1983).

As for `COC(=O)c1ccccc1S(=O)(=O)NC(=O)Nc1nc(C)cc(OC)n1` [drawing 413], the response rating with bush bean is reported as 9C; in the test with morningglory, 10C; in the test on cocklebur, 9C; in the test with cassia, 9C; in the test on nutsedge, 9C; in the test on barnyardgrass, 9C. For the same compound, the response rating in the test with wild oats was 9C; with corn, 10C; in the test with cotton, 9C; in the test on sorghum, 9C; in the test with soybean it was 9C; in the test on wheat it was 9C.
Regarding `COc1cc(OC)nc(NC(=O)NS(=O)(=O)c2ccccc2C(=O)OCCCl)n1` [drawing 420], the response rating in the test on bush bean is 9C; in the test with morningglory, 10C; in the test on cocklebur, 10C; with cassia it was 9C; in the test with nutsedge, 9C; in the test on barnyardgrass it was 10C. In addition, the response rating in the test on cotton is recorded as 9C; in the test with sorghum it was 10C; with soybean, 10C.
Regarding `COc1cc(C)nc(NC(=O)NS(=O)(=O)c2ccccc2C(=O)OCCCl)n1` [drawing 421], the response rating with bush bean was 9C; in the test with morningglory it was 10C; in the test with cocklebur, 10C; with cassia, 10C; in the test with nutsedge, 10C; in the test with barnyardgrass, 10C. For the same compound, the response rating was 10C with corn, 9C in the test with cotton and 9C in the test with sorghum.
As to `COC(=O)c1cc(Cl)ccc1S(=O)(=O)NC(=O)Nc1nc(C)cc(OC)n1` [drawing 434], the response rating with morningglory came to 10C; in the test on cocklebur it was 10C; in the test on cassia it was 9C; in the test on crabgrass, 3G; in the test on corn, 9H; in the test with rice, 9C.
As for `COC(=O)c1cc(F)ccc1S(=O)(=O)NC(=O)Nc1nc(C)nc(OC)n1` [drawing 450], the response rating in the test with bush bean amounted to 9C; in the test on morningglory, 9C; with cassia it was 9C; with crabgrass, 9C; in the test on wild oats, 0; with corn, 9C. The response rating was found to be 9C with rice and 0 in the test with wheat.
For the compound `CCOCCOC(=O)c1ccccc1S(=O)(=O)NC(=O)Nc1nc(Cl)cc(Cl)n1` [drawing 453], the response rating with morningglory came out at 0; in the test with cocklebur, 5C; in the test on cassia, 0; in the test on nutsedge it was 0; in the test with crabgrass, 2C; in the test with wild oats it was 1C. Further, the response rating was 1C with cotton and 2G in the test with wheat.
With `C=CCCC(C)OC(=O)c1ccccc1S(=O)(=O)NC(=O)Nc1nc(C)nc(OC)n1` (centres unmarked) [drawing 455], the response rating with bush bean stood at 9C; in the test with morningglory, 10C; in the test on cocklebur it was 10C; in the test with cassia it was 9C; in the test on nutsedge it was 7G; in the test with crabgrass, 9C. The response rating in the test with corn, with cotton and with soybean was 9C throughout.
`COc1nc(C)nc(NC(=O)NS(=O)(=O)c2ccccc2C(=O)OC2CCCCCCC2)n1` [drawing 456]: the response rating with bush bean was found to be 9C; in the test with morningglory it was 10C; in the test on cocklebur it was 9C; with cassia, 9C; in the test on nutsedge, 4G; in the test with wild oats, 4G. The results for the response rating in the test on corn, with cotton and in the test on wheat were 9C, 9C and 2G, respectively.
Regarding `COc1cc(C)nc(NC(=O)NS(=O)(=O)c2ccccc2C(=O)OCCOc2ccccc2)n1` [drawing 461], the response rating amounted to 9C in the test on bush bean; 9C in the test with morningglory; 10C in the test on cocklebur; 8G in the test with nutsedge; 4G with crabgrass; 9C in the test on barnyardgrass. Moreover, the results for the response rating in the test with cotton, in the test on sorghum and in the test on soybean were 9C, 8G and 9C, respectively.
With `COc1cc(C)nc(NC(=O)NS(=O)(=O)c2ccccc2C(=O)NCc2ccccc2)n1` [drawing 464], the response rating in the test with bush bean is listed as 9C; in the test with morningglory, 10C; in the test on cocklebur, 9C; in the test with barnyardgrass it was 9C; in the test on wild oats it was 9C; in the test with corn, 10C. Further, the response rating in the test on cotton, in the test on sorghum, with soybean and in the test on wheat was 9C in each case.
For `CNC(=O)c1ccccc1S(=O)(=O)NC(=O)Nc1nc(C)cc(OC)n1` [drawing 466], the response rating in the test on bush bean was 9C; with morningglory, 10C; with cocklebur it was 9C; in the test with cassia it was 9C; with nutsedge, 10C; in the test on crabgrass it was 9C. The response rating in the test with barnyardgrass came to 9C; in the test on wild oats it was 9C; with corn it was 10C; in the test on cotton, 10C; in the test on sorghum it was 10C; in the test on soybean, 9C. The response rating in the test on wheat is recorded as 9C.
On to `CCCCCCOC(=O)c1ccccc1S(=O)(=O)NC(=O)Nc1nc(C)cc(COC)n1` [drawing 471], for which the response rating in the test on morningglory amounted to 2C; with cassia, 1C; in the test with crabgrass it was 0; in the test with barnyardgrass, 3C; in the test with wild oats it was 0; in the test with cotton it was 2C. For the same compound, the results for the response rating in the test with soybean and in the test with wheat were 2C and 0, respectively.
For the compound `COC(=O)c1ccccc1S(=O)(=O)NC(=O)Nc1nc(OC)nc(OCC(F)(F)F)n1` [drawing 473], the response rating with bush bean was 9C; in the test on morningglory, 10C; with cocklebur, 10C; with cassia, 10C; with crabgrass, 3G; with corn it was 10C. In the test on cotton, this compound came in with a response rating of 9C.
In the case of `COCCc1nc(NC(=O)NS(=O)(=O)c2ccccc2C(=O)OC)nc(OC)n1` [drawing 474], the response rating in the test with bush bean was 9C; in the test with morningglory, 10C; in the test with crabgrass, 9C; in the test with corn, 9C; with cotton it was 9C; with soybean it was 9C. Moreover, in the test with wheat, the response rating came out at 1C.
Consider `COc1cc(C)nc(NC(=O)NS(=O)(=O)c2ccccc2C(=O)SCc2ccccc2)n1` [drawing 475], for which the response rating amounted to 9C in the test with bush bean; 10C in the test on morningglory; 9C in the test on cocklebur; 9C in the test with cassia; 9C in the test on barnyardgrass; 9C in the test on corn. Also, the response rating was 9C in the test on cotton and 8C in the test on soybean.
On to `COc1cc(C)nc(NC(=O)NS(=O)(=O)c2ccccc2C(=O)SC)n1` [drawing 477], for which the response rating in the test with bush bean, in the test with morningglory, in the test on cocklebur, in the test on cassia, with barnyardgrass and in the test with corn was 9C throughout. The response rating in the test on cotton, in the test on sorghum and with soybean was 9C each time.
For the compound `COc1cc(C)nc(NC(=O)NS(=O)(=O)c2ccccc2C(=O)OC(C)CCl)n1` (centres unmarked) [drawing 478], the response rating turned out to be 10C with morningglory; 9C in the test on cocklebur; 10C in the test on cassia; 9C with nutsedge; 9C with crabgrass; 10C with barnyardgrass. Besides, the response rating stood at 8C in the test on wild oats; 9C in the test on corn; 9C with cotton; 9C in the test on sorghum; 8C in the test on wheat.
